Values joined by “and” are separate entries in the source; they are usually repeats but may differ in a detail not shown here. Equal entries are not always repeated. “Also recorded” adds a separate entry of the source.
How the values were obtained:
[1] = system: T1, TPC2^LL/AA; experiment: Inside-out patch recordings of ITPC2; format: biochemical, human; conditions: for time course of LyNa-VA1.2-induced ITPC2: I/o
T1 construct: expressed in transfected cells; host or cells: HEK293

[2] = system: T2, TPC2^N653G; experiment: Whole-endolysosome recordings of ITPC2-N653G; format: biochemical, human; conditions: for PX / PNa, K+: TPC2 N653G, agonist-activated current
T2 construct: expressed in transfected cells

[3] = system: non-transfected HEK293 cells; experiment: Whole-cell recordings in non-transfected cells; format: cell-based, Homo sapiens
Excerpt: To our surprise, 5 out of the 23 compounds are well characterized as tri-cyclic anti-depressants (TCAs), which are believed to act on neurotransmitter transporters or voltage-gated Na^+ channels ([Cheng and Bahar, 2019]; [Pancrazio et al., 1998]). We therefore characterized the responses of TPC2 channels to TCAs in detail using electrophysiological methods. We first performed whole-cell recordings in HEK293 cells that were transfected with surface-expressed TPC2 mutant channels (TPC2-L^11L^12-AA; abbreviated as TPC2^LL/AA hereafter). No functional difference was noted between wild-type (WT) TPC2 and TPC2^LL/AA channels in terms of channel permeation and gating properties ([Wang et al., 2012]). To facilitate the detection of TPC2-specific currents, we used symmetric Na^+ solutions in the bath (extracellular) and pipette (cytosolic) solutions ([Wang et al., 2012]).
Whole-cell recordings were performed using pipette electrodes with resistance of 3–5 MΩ. […] All bath solutions were applied via a perfusion system that allowed complete solution exchange within a few seconds. Data were collected using an Axopatch 200A patch clamp amplifier, Digidata 1440, and pClamp 10.2 software (Axon Instruments). […] All experiments were conducted at room temperature (21–23°C), and all recordings were analyzed with pClamp 10.2, and Origin 8.0 (OriginLab, Northampton, MA).

[4] = system: T3, TRPML1; experiment: Whole-endolysosome recordings of ITRPML1; format: biochemical; conditions: TRPML1-transfected cells
T3 construct: expressed in transfected cells

[5] = inside out, 200 µM, individual recordings
[6] = inside-out, 200 µM, mean ± S.E.M

`CNCCCN1c2ccccc2CCc2ccccc21` [LyNa-VA1.2, Desipramine] was tested, and the “activation of ITPC2 in inside-out patch (in words)” value ([1]; 200 µM) was “evoked”, the “time course of LyNa-VA1.2-induced ITPC2” value ([1]; time 0 s) was -0.06927 and the “time course of LyNa-VA1.2-induced ITPC2” value ([1]; time 2 s) was -0.0966. For the same molecule, the “time course of LyNa-VA1.2-induced ITPC2” value ([1]; time 4 s) was -0.00941, the “time course of LyNa-VA1.2-induced ITPC2” value ([1]; time 6 s) was -8.49E-04 and the “time course of LyNa-VA1.2-induced ITPC2” value ([1]; time 8 s) was -0.06407. For the same molecule, the “time course of LyNa-VA1.2-induced ITPC2” value ([1]; time 10 s) was -0.08365, the “time course of LyNa-VA1.2-induced ITPC2” value ([1]; time 12 s) was -0.08538 and the “time course of LyNa-VA1.2-induced ITPC2” value ([1]; time 14 s) was -0.09864. The “time course of LyNa-VA1.2-induced ITPC2” value ([1]; time 16 s) was -0.09741, the “time course of LyNa-VA1.2-induced ITPC2” value ([1]; time 18 s) was -0.1284 and the “time course of LyNa-VA1.2-induced ITPC2” value ([1]; time 20 s) was -0.2599. For the same molecule, the “time course of LyNa-VA1.2-induced ITPC2” value ([1]; time 22 s) was -0.3874, the “time course of LyNa-VA1.2-induced ITPC2” value ([1]; time 24 s) was -0.5101 and the “time course of LyNa-VA1.2-induced ITPC2” value ([1]; time 26 s) was -0.54. The “time course of LyNa-VA1.2-induced ITPC2” value ([1]; time 28 s) was -0.5044, the “time course of LyNa-VA1.2-induced ITPC2” value ([1]; time 30 s) was -0.6046 and the “time course of LyNa-VA1.2-induced ITPC2” value ([1]; time 32 s) was -0.6923. For the same molecule, the “time course of LyNa-VA1.2-induced ITPC2” value ([1]; time 34 s) was -0.8892, the “time course of LyNa-VA1.2-induced ITPC2” value ([1]; time 36 s) was -0.754 and the “time course of LyNa-VA1.2-induced ITPC2” value ([1]; time 38 s) was -0.8074. For the same molecule, the “time course of LyNa-VA1.2-induced ITPC2” value ([1]; time 40 s) was -0.7387, the “time course of LyNa-VA1.2-induced ITPC2” value ([1]; time 42 s) was -0.8794 and the “time course of LyNa-VA1.2-induced ITPC2” value ([1]; time 44 s) was -0.9937. The “time course of LyNa-VA1.2-induced ITPC2” value ([1]; time 46 s) was -1, the “time course of LyNa-VA1.2-induced ITPC2” value ([1]; time 48 s) was -0.9555 and the “time course of LyNa-VA1.2-induced ITPC2” value ([1]; time 50 s) was -0.9211. For the same molecule, the “time course of LyNa-VA1.2-induced ITPC2” value ([1]; time 52 s) was -0.87, the “Latency of induced ITPC2” value [1, 5] was 8 s and 12 s and 14 s and the “Time constant (τ) of induced ITPC2” value [1, 5] was 13.9 s and 16.3 s and 17.9 s and 21.3 s. For the same molecule, the “latency of TPC2 activation” value [1, 6] was 12 ± 1 s, the “time constant (τ) of TPC2 activation” value [1, 6] was 17 ± 2 s and the “activation of TPC2 N653G (in words)” value [2] was “did not alter the ability of LyNa-VA1.2 to enhance channel activation”. For the same molecule, the “PX / PNa, K+” value ([2]; individual) was 0.5576 and 0.6267 and 0.3361 and 0.4961 and the “PX / PNa, K+” value ([2]; mean) was 0.5041.
`Nc1nc2ccc(OC(F)(F)F)cc2s1` [LyNA1, Riluzole] was tested, and the “activation of whole-cell currents in non-transfected cells (in words)” value [3] was “not in non-transfected HEK293 cells” and the “activation of whole-endolysosome ITRPML1 (in words)” value [4] was “no current activation; also recorded: lack of the activation effects”.

From article PMC6905855, “Agonist-specific voltage-dependent gating of lysosomal two-pore Na^+ channels” (eLife, 2019)
